The test system of the test is BDF1 mice, B16 melanoma ip, median survival T/C. Description: NCI In Vivo Anticancer Drug Screen. Data for tumor model B16 Melanoma (intraperitoneal) in B6D2F1 (BDF1) mice. To be noted: endpoint: median survival time, higher = longer survival. Summed up: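 Compounds were tested in mice carrying transplantable tumors. Survival or tumor size was recorded, and each value is the treated-group measurement (T) divided by that of the vehicle-treated control group (C).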

Where [1] appears, read: dose: 25.0 mg/kg/injection, schedule: Q01DX009 (ip), vehicle: Klucel (hydroxypropylcellulose) (HPC).
Where [2] appears, read: dose: 50.0 mg/kg/injection, schedule: Q01DX009 (ip), vehicle: Klucel (hydroxypropylcellulose) (HPC).
Where [3] appears, read: dose: 50.0 mg/kg/injection, schedule: Q01DX009 (ip), vehicle: saline with Tween-80.
[4] abbreviates: dose: 100.0 mg/kg/injection, schedule: Q01DX009 (ip), vehicle: saline with Tween-80.
Setting [5] is: dose: 200.0 mg/kg/injection, schedule: Q01DX009 (ip), vehicle: saline with Tween-80.
Setting [6] is: dose: 25.0 mg/kg/injection, schedule: Q01DX009 (ip), vehicle: saline with Tween-80.
Where [7] appears, read: dose: 12.5 mg/kg/injection, schedule: Q01DX009 (ip), vehicle: Klucel (hydroxypropylcellulose) (HPC).
The mark [8] stands for this setting: dose: 100.0 mg/kg/injection, schedule: Q01DX009 (ip), vehicle: Klucel (hydroxypropylcellulose) (HPC).
Where [9] appears, read: dose: 200.0 mg/kg/injection, schedule: Q01DX009 (ip), vehicle: Klucel (hydroxypropylcellulose) (HPC).
The mark [10] stands for this setting: dose: 100.0 mg/kg/injection, schedule: Q04DX003 (ip), vehicle: saline with Tween-80.
The mark [11] stands for this setting: dose: 200.0 mg/kg/injection, schedule: Q04DX003 (ip), vehicle: saline with Tween-80.
The mark [12] stands for this setting: dose: 400.0 mg/kg/injection, schedule: Q04DX003 (ip), vehicle: saline with Tween-80.
The mark [13] stands for this setting: dose: 6.25 mg/kg/injection, schedule: Q01DX009 (ip), vehicle: saline.
Setting [14] is: dose: 12.5 mg/kg/injection, schedule: Q01DX009 (ip), vehicle: saline.
The mark [15] stands for this setting: dose: 25.0 mg/kg/injection, schedule: Q01DX009 (ip), vehicle: saline.
The mark [16] stands for this setting: dose: 50.0 mg/kg/injection, schedule: Q01DX009 (ip), vehicle: saline.

“And” between values parts separate entries of the source, which are not always exact repeats. Equal values may be shown once. Inconclusive results and toxic doses are left out.

Take `S=c1[nH]c2ccccc2s1`: the T/C reads like this: (dose: 25.0 mg/kg/injection, schedule: Q01DX009 (ip), vehicle: carboxymethylcellulose (CMC)) 105 % of control; (dose: 50.0 mg/kg/injection, schedule: Q01DX009 (ip), vehicle: carboxymethylcellulose (CMC)) 103 % of control; (dose: 100.0 mg/kg/injection, schedule: Q01DX009 (ip), vehicle: carboxymethylcellulose (CMC)) 109 % of control.

For `C[C@H]1CN1C1=CC(=O)C(N2C[C@@H]2C)=CC1=O`, the T/C (dose: 0.5 mg/kg/injection, schedule: Q01DX009 (ip), vehicle: saline with Tween-80) is 102 % of control; the T/C (dose: 1.0 mg/kg/injection, schedule: Q01DX009 (ip), vehicle: saline with Tween-80) was 106 % of control; the T/C (dose: 2.0 mg/kg/injection, schedule: Q01DX009 (ip), vehicle: Klucel (hydroxypropylcellulose) (HPC)) is 123 % of control; the T/C (dose: 4.0 mg/kg/injection, schedule: Q01DX009 (ip), vehicle: Klucel (hydroxypropylcellulose) (HPC)) was 115 % of control.

For `O=[N+]([O-])c1ccc2[nH]c(=S)sc2c1`, the T/C was 97 % of control under setting [1] and 100 % of control under setting [2].

In the case of `CCNc1nc(NC(C)C)nc(SC)n1`, the T/C is 117 % of control under setting [3], 106 % of control under setting [4] and 104 % of control under setting [5].

As to `O=Cc1ccc(C(Cl)(Cl)Cl)cc1`, the T/C (dose: 12.5 mg/kg/injection, schedule: Q01DX009 (ip), vehicle: saline with Tween-80) was 91 % of control; the T/C under setting [6] was 103 % of control; the T/C under setting [3] is 101 % of control and 104 % of control; the T/C under setting [4] is 106 % of control and 107 % of control; the T/C under setting [5] is 103 % of control and 110 % of control.

With `Cc1ccc(NC(=O)Nc2ccccc2)cc1Cl`, the T/C runs as follows: (dose: 100.0 mg/kg/injection, schedule: Q01DX008 (sc), vehicle: olive oil, sesame oil, peanut oil) 99 % of control; (dose: 200.0 mg/kg/injection, schedule: Q01DX008 (sc), vehicle: olive oil, sesame oil, peanut oil) 96 % of control; (dose: 400.0 mg/kg/injection, schedule: Q01DX008 (sc), vehicle: olive oil, sesame oil, peanut oil) 98 % of control.

Consider `COCCOC1=C(N2CC2)C(=O)C(OCCOC)=C(N2CC2)C1=O`, for which the T/C runs as follows: (dose: 0.5 mg/kg/injection, schedule: Q01DX009 (ip), vehicle: saline) 102 % of control and 123 % of control; (dose: 1.0 mg/kg/injection, schedule: Q01DX009 (ip), vehicle: saline) 110 % of control; (dose: 2.0 mg/kg/injection, schedule: Q01DX009 (ip), vehicle: saline) 94 % of control; (dose: 4.0 mg/kg/injection, schedule: Q01DX009 (ip), vehicle: saline) 150 % of control.

In the case of `O=C(Nc1cc(C(F)(F)F)ccc1Cl)c1cccc(C(=O)Nc2cc(C(F)(F)F)ccc2Cl)c1`, the T/C was 101 % of control under setting [7], 101 % of control under setting [1] and 101 % of control under setting [2].

Take `O=[N+]([O-])c1cc(F)ccc1O`: the T/C under setting [6] was 100 % of control.

On to `C[C@H](CN1CC(=O)NC(=O)C1)N1CC(=O)NC(=O)C1`, for which the T/C runs as follows: (dose: 8.0 mg/kg/injection, schedule: Q01DX009 (ip), vehicle: saline) 108 % of control; (dose: 16.0 mg/kg/injection, schedule: Q01DX009 (ip), vehicle: saline) 120 % of control; (dose: 16.0 mg/kg/injection, schedule: Q01DX009 (ip), vehicle: water) 107 % of control; (dose: 25.0 mg/kg/injection, schedule: Q04DX003 (ip), vehicle: water) 111 % of control; (dose: 32.0 mg/kg/injection, schedule: Q01DX009 (ip), vehicle: water) 111 % of control; (dose: 50.0 mg/kg/injection, schedule: Q04DX003 (ip), vehicle: water) 94 % of control. The T/C is 106 % of control (dose: 100.0 mg/kg/injection, schedule: Q04DX003 (ip), vehicle: water); 101 % of control (dose: 128.0 mg/kg/injection, schedule: Q01DX009 (ip), vehicle: water); 107 % of control (dose: 200.0 mg/kg/injection, schedule: Q04DX003 (ip), vehicle: water).

Turning to `O=c1ssc(=Nc2ccccc2)n1-c1ccccc1`, the T/C is 102 % of control under setting [7]; 102 % of control under setting [1]; 100 % of control under setting [2]; 106 % of control under setting [8]; 91 % of control under setting [9].

For `C=CCOCC(O)CN1CCC(C)CC1` (stereo not given), the T/C is 88 % of control (dose: 25.0 mg/kg/injection, schedule: Q04DX003 (ip), vehicle: Klucel (hydroxypropylcellulose) (HPC)); 101 % of control (dose: 50.0 mg/kg/injection, schedule: Q04DX003 (ip), vehicle: Klucel (hydroxypropylcellulose) (HPC)); 107 % of control (dose: 100.0 mg/kg/injection, schedule: Q04DX003 (ip), vehicle: Klucel (hydroxypropylcellulose) (HPC)).

As for `O=C(OC1CC2CC=CC21)c1ccc([N+](=O)[O-])cc1` (stereo not given), the T/C is, setting by setting: under setting [10], 100 % of control; under setting [11], 94 % of control; under setting [12], 94 % of control.

Take `O=C(OC1COC(n2c(=O)oc3ccc(F)cc32)C(OC(=O)c2ccccc2)C1OC(=O)c1ccccc1)c1ccccc1` (stereo not given): the T/C is 93 % of control under setting [3]; 89 % of control under setting [8]; 92 % of control under setting [4]; 86 % of control under setting [9]; 107 % of control under setting [5]; 90 % of control (dose: 400.0 mg/kg/injection, schedule: Q01DX009 (ip), vehicle: saline with Tween-80).

With `Oc1ccc(/C=N\N=C\c2ccc(O)cc2)cc1`, the T/C was 95 % of control under setting [4] and 90 % of control under setting [5].

Take `CN(C)CCCCNc1ccc(NCCCCN(C)C)c2c1C(=O)c1c(O)ccc(O)c1C2=O`: the T/C by setting is: under setting [13], 95 % of control; under setting [14], 93 % of control; under setting [15], 90 % of control and 110 % of control.

Consider `O=P(CCCCCCP(=O)(N1CC1)N1CC1)(N1CC1)N1CC1`, for which the T/C under setting [8] is 176 % of control.

For the compound `CCCCN(c1ccccc1)c1ncnc2c1cnn2C`, the T/C is, setting by setting: under setting [10], 100 % of control; under setting [11], 102 % of control; under setting [12], 100 % of control.

For `FC(F)(F)c1ccc2c(c1)N(CCCN1CCN(CCOCCCl)CC1)c1ccccc1S2`, the T/C was 123 % of control (dose: 0.39 mg/kg/injection, schedule: Q01DX009 (ip), vehicle: saline); 115 % of control (dose: 0.78 mg/kg/injection, schedule: Q01DX009 (ip), vehicle: saline); 110 % of control (dose: 1.56 mg/kg/injection, schedule: Q01DX009 (ip), vehicle: saline); 92 % of control (dose: 2.34 mg/kg/injection, schedule: Q04DX003 (ip), vehicle: saline); 86 % of control (dose: 4.68 mg/kg/injection, schedule: Q04DX003 (ip), vehicle: saline).

With `CC(Cc1ccccc1)NCCn1cnc2c1c(=O)n(C)c(=O)n2C` (stereo not given), the T/C was 112 % of control (dose: 3.12 mg/kg/injection, schedule: Q01DX009 (ip), vehicle: saline); 115 % of control under setting [13]; 100 % of control under setting [14]; 109 % of control under setting [15]; 115 % of control under setting [16].

Turning to `Nc1n[nH]c(=O)[nH]1`, the T/C by setting is: under setting [1], 107 % of control; under setting [2], 98 % of control; under setting [8], 109 % of control; under setting [9], 107 % of control.

Consider `CC1(C)CC(O)(C(Cl)c2ccccc2)C(=O)c2ccccc21` (stereo not given), for which the T/C under setting [2] is 103 % of control; the T/C under setting [8] was 95 % of control; the T/C under setting [9] is 94 % of control; the T/C (dose: 400.0 mg/kg/injection, schedule: Q01DX009 (ip), vehicle: Klucel (hydroxypropylcellulose) (HPC)) is 90 % of control.

For the compound `CN(C)CC(Cl)CCl` (stereo not given), the T/C runs as follows: under setting [16], 98 % of control; (dose: 100.0 mg/kg/injection, schedule: Q01DX009 (ip), vehicle: saline) 102 % of control; (dose: 200.0 mg/kg/injection, schedule: Q01DX009 (ip), vehicle: saline) 105 % of control; (dose: 400.0 mg/kg/injection, schedule: Q01DX009 (ip), vehicle: saline) 108 % of control.

For the origin of these results see PubChem BioAssay AID192 (DTP/NCI, 2004).
